From PMC9928118, “Funneling modulatory peptide design with generative models: Discovery and characterization of disruptors of calcineurin protein-protein interactions” (PLOS Computational Biology, 2023)

Test system: GST-tagged Cn
Experiment: PEPperPRINT peptide microarray binding assay with GST-tagged Cn
Outline: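 Qualitative binding: peptides printed on a PEPperPRINT microarray were incubated overnight at 4 °C with 1 mg/ml GST-tagged Cn, then detected with Alexa-Fluor 647 anti-GST antibody. Log fluorescence was baseline-corrected, averaged over duplicate spots, Z-normalized and averaged across five repeats.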

[1] = max over the chip locations listed for the peptide (two spots)
[2] = mean over the chip locations listed for the peptide (two spots)
[3] = GST-tagged Cn, max over the spots named in Location on chip
[4] = GST-tagged Cn, mean over the spots named in Location on chip
[5] = GST-tagged Cn, max over the spots on the chip (two locations)
[6] = GST-tagged Cn, mean over the spots on the chip (two locations)
[7] = max over the spots listed under Location on chip
[8] = mean over the spots listed under Location on chip
[9] = GST-tagged Cn, max over the chip locations
[10] = GST-tagged Cn, mean over the chip locations
[11] = GST-tagged Cn, max over the chip spots listed under Location on chip
[12] = GST-tagged Cn, mean over the chip spots listed under Location on chip

ADEASPRIVITPPELP [SeqRBMlowT_1222]
Chip Fluorescence (max) [1]: 3.902 | Chip Fluorescence (mean) [2]: 0.5727

MLDAIPEVVVSPPEEP [SeqRBM_4087]
Chip Fluorescence (max) [3]: 1.659 | Chip Fluorescence (mean) [4]: -0.168

LKDEFPEVRLNIISNL [SeqRBMlowT_1004]
Chip Fluorescence (max) [5]: 1.029 | Chip Fluorescence (mean) [6]: 0.2404

VDIATNDLISELCNLC [Seqrandom_9952]
Chip Fluorescence (max) [1]: 4.084 | Chip Fluorescence (mean) [2]: 0.2161

MAGPHPKIVITGPHEE [PKIVIT-containing synthetic peptide]
Chip Fluorescence (max) [7]: 2.82 | Chip Fluorescence (mean) [8]: 1.158

ESLWIPNATPTNFGVY [SeqRBM_4910]
Chip Fluorescence (max) [3]: 1.643 | Chip Fluorescence (mean) [4]: 0.8461

RTNLNPFFFFTSDSKN [SeqRBM_2819]
Chip Fluorescence (max) [9]: -0.6014 | Chip Fluorescence (mean) [10]: -1.251

RAYMNPFMTFIDGGHR [SeqRBMlowT_1518]
Chip Fluorescence (max) [3]: 1.378 | Chip Fluorescence (mean) [4]: 0.8819

ADEANPEITITPAELP [SeqRBMlowT_369]
Chip Fluorescence (max) [3]: 1.463 | Chip Fluorescence (mean) [4]: 0.5736

KDKAGKRSHLKGHSES [Seqshuffled_5410]
Chip Fluorescence (max) [11]: 0.8078 | Chip Fluorescence (mean) [12]: -0.09052

TFWTNPQYRLKLEEVD [SeqRBMlowT_1143]
Chip Fluorescence (max) [5]: 1.092 | Chip Fluorescence (mean) [6]: 0.4965

RNPGQALLTLRGHKAS [SeqRBMlowT_7787]
Chip Fluorescence (max) [11]: 0.3829 | Chip Fluorescence (mean) [12]: -0.6837

TFHTNPQYRIKLEEPD [SeqRBMlowT_4495]
Chip Fluorescence (max) [1]: 3.4958 | Chip Fluorescence (mean) [2]: 1.049

RNPGQALLTLRGHSAS [SeqRBMlowT_5835]
Chip Fluorescence (max) [11]: 0.6321 | Chip Fluorescence (mean) [12]: -0.2233

TFWTNPQFVVSLEEPD [SeqRBMlowT_8096]
Chip Fluorescence (max) [5]: 1.137 | Chip Fluorescence (mean) [6]: -0.6823

TFWTNPQYRVHVCDPD [SeqRBMlowT_293]
Chip Fluorescence (max) [3]: 1.378 | Chip Fluorescence (mean) [4]: -0.7162

TFWTNPQYRIKLTEPD [SeqRBMlowT_234]
Chip Fluorescence (max) [11]: 0.5195 | Chip Fluorescence (mean) [12]: -0.7647

STSSLPTFSFSPPQPT [SeqRBMlowT_3908]
Chip Fluorescence (max) [7]: 2.68 | Chip Fluorescence (mean) [8]: 0.3277

STSSLPTFSFSSPPST [SeqRBMlowT_3479]
Chip Fluorescence (max) [9]: -1.235 | Chip Fluorescence (mean) [10]: -1.867

TFWTNPQYKVKLEEED [SeqRBMlowT_252]
Chip Fluorescence (max) [5]: 1.065 | Chip Fluorescence (mean) [6]: 0.727

TTAMNPQFFVQIPRTA [SeqCAPN11_Daphnia_magna_2]
Chip Fluorescence (max) [1]: 9.6825 | Chip Fluorescence (mean) [2]: 0.161

GPPATPSIVVHPCCCD [SeqRBM_2098]
Chip Fluorescence (max) [5]: 1.034 | Chip Fluorescence (mean) [6]: -0.005812

PSLYENALGIESFTLS [SeqRBMlowT_6913]
Chip Fluorescence (max) [7]: 2.963 | Chip Fluorescence (mean) [8]: 0.4149

RQPGTALLELGGHKKQ [SeqRBMlowT_7758]
Chip Fluorescence (max) [5]: 1.043 | Chip Fluorescence (mean) [6]: 0.136

QSNSTPTITITPPSDA [SeqRBM_9156]
Chip Fluorescence (max) [1]: 7.93 | Chip Fluorescence (mean) [2]: 2.436

RNPGTFPLTLEGHKKQ [SeqRBMlowT_6333]
Chip Fluorescence (max) [5]: 1.229 | Chip Fluorescence (mean) [6]: -0.4106

KTGMATDMQFNPIEQH [Seqshuffled_2687]
Chip Fluorescence (max) [11]: 0.7078 | Chip Fluorescence (mean) [12]: 0.0887

GYDIDPAISFDSDLML [Seqshuffled_9502]
Chip Fluorescence (max) [7]: 3.174 | Chip Fluorescence (mean) [8]: 2.023

CDHMGLDIVIFVTELC [SeqRBM_1060]
Chip Fluorescence (max) [1]: 8.388 | Chip Fluorescence (mean) [2]: 2.901

TFWTNPQFRLKLEEVD [SeqRBMlowT_5628]
Chip Fluorescence (max) [1]: 7.691 | Chip Fluorescence (mean) [2]: 2.027

TFWTNPQYRVKVTEPD [SeqRBMlowT_7349]
Chip Fluorescence (max) [5]: 1.274 | Chip Fluorescence (mean) [6]: 0.2599

NDHALPEITVTPAELP [SeqRBM_7856]
Chip Fluorescence (max) [1]: 4.823 | Chip Fluorescence (mean) [2]: 1.654

PQPSVQSAEFMEFVGH [Seqshuffled_8788]
Chip Fluorescence (max) [3]: 1.4183 | Chip Fluorescence (mean) [4]: 0.4268

HSKLIPKVSIQSPVHH [SeqRBMlowT_2323]
Chip Fluorescence (max) [9]: 0.1516 | Chip Fluorescence (mean) [10]: -0.9286

KSKSIPKISIQSPVHH [SeqRBMlowT_1684]
Chip Fluorescence (max) [7]: 2.868 | Chip Fluorescence (mean) [8]: 0.2995

SLKLWMLLGIEAFTLS [SeqRBM_4562]
Chip Fluorescence (max) [5]: 1.02 | Chip Fluorescence (mean) [6]: 0.3817

REYINPKMHFHFLNTV [SeqRBM_9087]
Chip Fluorescence (max) [3]: 1.764 | Chip Fluorescence (mean) [4]: -0.3424

VACITWAAMLIIFSMV [Seqrandom_9980]
Chip Fluorescence (max) [11]: 0.9057 | Chip Fluorescence (mean) [12]: -0.476
